What was measured:
muscarinic M1 receptors [1] = test: Isolated organ bioassay, test for agonist activity, field-stimulated rabbit vas deferens; type: biochemical; conditions: for Effect on twitch contraction amplitude (in words): untreated field-stimulated tissues
Method: (§1) Prostatic segments of rabbit vas deferens were suspended in 20-ml organ baths containing an oxygenated (95% O2 and 5% CO2) and pre-warmed (30° C.) physiological salt solution of the following composition (in mM): NaCl 118.0, KCl 4.7, MgSO4 0.6, CaCl2) 2.5, KH2PO4 1.2, NaHCO325 and glucose 11.0 (pH 7.4).
(§2) Yohimbine (1 μM) and naloxone (1 μM) were also present throughout the experiments to block the α2-adrenergic and opioid receptors, respectively.
(§3) The tissues were connected to force transducers for isometric tension recordings. They were stretched to a resting tension of 1 g then allowed to equilibrate for 60 min during which time they were washed repeatedly and the tension readjusted. Thereafter, they were stimulated electrically with square wave pulses (submaximal intensity, 1 msec duration, 0.1 Hz) delivered by a constant current stimulator.
The tissues were exposed to a submaximal concentration of the reference agonist McN-A-343 (1 μM) to verify responsiveness and to obtain a control response. Following washings and recovery of the initial twitch contractions, the tissues were exposed to the test compounds or the same agonist which were left in contact with the tissues until a stable response was obtained or for a maximum of 15 min.
(§4) The parameter measured was the maximum change in the amplitude of the electrically-evoked contractions induced by the compounds.
(§5) The results are expressed as a percent of the control response to McN-A-343 (mean values).

σ2 = molecular target: T1, σ2 (Rattus norvegicus, UniProt Q5U3Y7); test: σ2 receptor binding assay, [3H]DTG (+ 300 nM (+)pentazocine); conditions: for % of Control Specific Binding, 1st / % of Control Specific Binding, 2nd / % of Control Specific Binding, Mean: 1.0E−06 M; for % of Control Specific Binding, 1st: 1st individual value; for % of Control Specific Binding, 2nd: 2nd individual value; for % Inhibition of Control Specific Binding: test concentration 1.0E−06 M
T1 sequence (Q5U3Y7 1-176): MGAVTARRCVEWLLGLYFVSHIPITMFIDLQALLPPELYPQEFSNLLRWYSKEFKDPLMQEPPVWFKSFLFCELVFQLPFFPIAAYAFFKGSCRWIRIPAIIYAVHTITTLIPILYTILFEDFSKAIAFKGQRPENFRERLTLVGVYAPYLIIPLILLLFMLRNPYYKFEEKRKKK
From the text: (§6) The specific ligand binding to the receptors is defined as the difference between the total binding and the nonspecific binding determined in the presence of an excess of unlabelled ligand.
(§7) The results are expressed as a percent of control specific binding and as a percent inhibition of control specific binding obtained in the presence of the test compounds. Individual and mean values are presented in the results section.
(§8) The IC50 values (concentration causing a half-maximal inhibition of control specific binding) and Hill coefficients (nH) were determined by non-linear regression analysis of the competition curves using Hill equation curve fitting. The inhibition constants (Ki) were calculated from the Cheng Prusoff equation (Ki=IC50/(1+(L/KD)), where L=concentration of radioligand in the assay, and KD=affinity of the radioligand for the receptor).

σ1 (h) = σ1 (h) (Homo sapiens, UniProt Q99720); test: σ1 (h) receptor binding assay, [3H](+)pentazocine; conditions: hydrochloride; for % of Control Specific Binding, 1st / % of Control Specific Binding, 2nd / % of Control Specific Binding, Mean: 1.0E−06 M; for % of Control Specific Binding, 1st: 1st individual value; for % of Control Specific Binding, 2nd: 2nd individual value; for % Inhibition of Control Specific Binding: test concentration 1.0E−06 M
From the text: as §6, §7, §8

muscarinic M1 receptors [2] = test: Isolated organ bioassay, test for antagonist activity, field-stimulated rabbit vas deferens; type: biochemical; conditions: for Response to McN-A-343 (1.0E−06M) in the presence of the compound, percent of the control response: mean, n=2; for Behaviour at the M1 receptors (conclusion): rabbit vas deferens
Method: as §1, §2, §3
The tissues were exposed to a submaximal concentration of the reference agonist McN-A-343 (1 μM) to obtain a control response.
If it occurred, a recovery of the twitch contraction amplitude by the test compounds indicated an antagonist activity at the M1 receptors.
as §4, §5

[3] = Neuroprotection against oxidative (anoxic) stress, balloon ascent (Example 2); type: in vivo; conditions: 10 mgs oral daily for 5 days before ascent to 6,000 meters without oxygen assist
From the text: A person balloonist, anticipating anoxic stress, is orally administered 10 mgs of oral ⊖Anevex2-73 substantially free of Anavex2-73 ? daily for 5 days preceding a balloon ascent.

[4] = Neuroprotection in stroke patient (Example 4); type: in vivo; conditions: person, ischemic event of middle cerebral artery, 1 mg i.v.
Method: A person enters the emergency room and is diagnosed with an ischemic event involving the middle cerebral artery, with symptomatology onset being less than 1 hr. Immediately, the patient is administered an i.v. supplemented with 1 mg of ⊖Anevex2-73 substantially free of Anavex2-73 ? while blood supply to the restricted area is restored.

[5] = Treatment of Alzheimer's patients (Examples 1 and 5); type: in vivo
Method: A person diagnosed with early stage Alzheimer's dementia is treated with 10 mg of ⊖Anevex2-73 substantially free of Anavex2-73 ? , once per week for three years.
A patient is diagnosed with AD and treated with 10 mg of ⊖Anevex2-73 substantially free of Anavex2-73 ? daily for 3 yrs.

[6] = in vivo, po

Sequence of σ1 (h) (Q99720 whole entry): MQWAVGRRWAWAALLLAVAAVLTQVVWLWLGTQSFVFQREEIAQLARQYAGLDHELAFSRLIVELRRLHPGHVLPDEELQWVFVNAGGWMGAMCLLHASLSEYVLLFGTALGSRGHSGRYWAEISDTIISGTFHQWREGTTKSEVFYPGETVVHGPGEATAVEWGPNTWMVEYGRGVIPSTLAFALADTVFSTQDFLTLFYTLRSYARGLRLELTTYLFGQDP

SMILES	Effect on twitch contraction amplitude (in words) (muscarinic M1 receptors [1])	% of Control Specific Binding, 1st (σ2; hydrochloride) [%]	% of Control Specific Binding, 2nd (σ2; hydrochloride) [%]	% of Control Specific Binding, Mean (σ2; hydrochloride) [%]	% of Control Specific Binding, 1st (σ1 (h)) [%]	% of Control Specific Binding, 2nd (σ1 (h)) [%]	% of Control Specific Binding, Mean (σ1 (h)) [%]	% Inhibition of Control Specific Binding (σ1 (h)) [%]	Behaviour at the M1 receptors (conclusion) (muscarinic M1 receptors [2])	% Inhibition of Control Specific Binding (σ2; hydrochloride) [%]	further results
CN(C)CC1COC(c2ccccc2)(c2ccccc2)C1.Cl (single isomer, unassigned; (+)) [(+) A1-41, tetrahydro-N,N-dimethyl-5,5-diphenyl-3-furanmethanamine hydrochloride]	did not decrease the twitch contraction amplitude but caused a slight to moderate increase	60.0	56.8	58.4	35.0	32.9	34.0	66	behave as antagonists at the M1 receptors		Response to the compound (decrease in twitch contraction amplitude), percent of the control response to McN-A-343 (muscarinic M1 receptors [1]; compound 1.0E−05M, mean, n=2, listed as (+) AE 14, hydrochloride): −31%; Response to the compound (decrease in twitch contraction amplitude), percent of the control response to McN-A-343 (muscarinic M1 receptors [1]; compound 1.0E−06M, mean, n=2, listed as (+) AE 14, hydrochloride): −16%; % Inhibition of Control Specific Binding (σ2; listed as (+) A1-14, hydrochloride): 42%; Response to McN-A-343 (1.0E−06M) in the presence of the compound, percent of the control response (muscarinic M1 receptors [2]; compound 1.0E−05M, listed as (+) AE 14, hydrochloride): 1%; Response to McN-A-343 (1.0E−06M) in the presence of the compound, percent of the control response (muscarinic M1 receptors [2]; compound 1.0E−06M, listed as (+) AE 14, hydrochloride): 13%
CN(C)CC1COC(c2ccccc2)(c2ccccc2)C1.Cl (single isomer, unassigned; (-)) [(−) A1-41, tetrahydro-N,N-dimethyl-5,5-diphenyl-3-furanmethanamine hydrochloride]	did not decrease the twitch contraction amplitude but caused a slight to moderate increase	41.0	40.3	40.7	35.7	33.3	34.5	65	behave as antagonists at the M1 receptors		Response to the compound (decrease in twitch contraction amplitude), percent of the control response to McN-A-343 (muscarinic M1 receptors [1]; compound 1.0E−05M, mean, n=2, listed as (−) AE 14, hydrochloride): −8%; Response to the compound (decrease in twitch contraction amplitude), percent of the control response to McN-A-343 (muscarinic M1 receptors [1]; compound 1.0E−06M, mean, n=2, listed as (−) AE 14, hydrochloride): −5%; % Inhibition of Control Specific Binding (σ2; listed as (−) A1-14, hydrochloride): 59%; Response to McN-A-343 (1.0E−06M) in the presence of the compound, percent of the control response (muscarinic M1 receptors [2]; compound 1.0E−05M, listed as (−) AE 14, hydrochloride): 9%; Response to McN-A-343 (1.0E−06M) in the presence of the compound, percent of the control response (muscarinic M1 receptors [2]; compound 1.0E−06M, listed as (−) AE 14, hydrochloride): 20%
C[N+](C)(C)CC#CCOC(=O)Nc1cccc(Cl)c1.[Cl-] [McN-A-343, reference compound]	concentration-dependent decrease in the twitch contraction amplitude										Response to the compound + pirenzepine, percent of the control response to McN-A-343 (muscarinic M1 receptors [1]; + pirenzepine (1.0E−07M), mean, n=2): −5%; Response to the compound (decrease in twitch contraction amplitude), percent of the control response to McN-A-343 (muscarinic M1 receptors [1]; compound 1.0E−06M, mean, n=2): 99%; Response to the compound (decrease in twitch contraction amplitude), percent of the control response to McN-A-343 (muscarinic M1 receptors [1]; compound 1.0E−07M, mean, n=2): 29%; Response to the compound (decrease in twitch contraction amplitude), percent of the control response to McN-A-343 (muscarinic M1 receptors [1]; compound 3.0E−07M, mean, n=2): 67%
CN(C)CC1CCOC1(c1ccccc1)c1ccccc1.Cl (single isomer, unassigned; (-)) [(−) A2-73, tetrahydro-N,N-dimethyl-2,2-diphenyl-3-furanmethanamine hydrochloride]	did not decrease the twitch contraction amplitude but caused a slight to moderate increase	126.1	100.6	113.4	50.7	50.0	50.4	50	behave as antagonists at the M1 receptors	−13	Anoxic damage [3]: suffers no anoxic damage; Response to the compound (decrease in twitch contraction amplitude), percent of the control response to McN-A-343 (muscarinic M1 receptors [1]; compound 1.0E−05M, mean, n=2): −20%; Response to the compound (decrease in twitch contraction amplitude), percent of the control response to McN-A-343 (muscarinic M1 receptors [1]; compound 5.0E−05M, mean, n=2): −33%; CT/MRI imaging of the affected region [4]: no signs of lesioning in the affected region; Daily testing of cognitive and motor systems [4]: no deficits in physical or mental capacities; Cognitive score ([5]; person with AD, 10 mg daily for 3 yrs): stabilizes and then increases slowly and regularly; Brain content in amyloid peptide oligomers on autopsy ([5]; person, 10 mg once per week for three years): very low content in amyloid peptide oligomers; Mental function tested quarterly ([5]; person, early stage Alzheimer's dementia, 10 mg once per week for three years): does not decrease over the period; Response to McN-A-343 (1.0E−06M) in the presence of the compound, percent of the control response (muscarinic M1 receptors [2]; compound 1.0E−05M): 16%; Response to McN-A-343 (1.0E−06M) in the presence of the compound, percent of the control response (muscarinic M1 receptors [2]; compound 5.0E-05M): −1%; Damage after neurotoxin exposure [6]: suffers no damage
CN(C)CC1CCOC1(c1ccccc1)c1ccccc1.Cl (single isomer, unassigned; (+)) [(+) A2-73, tetrahydro-N,N-dimethyl-2,2-diphenyl-3-furanmethanamine hydrochloride]		88.9	83.2	86.1	81.5	81.1	81.3	19		14	

Reference: patent publication US12208079B2, “Enantiomers of A2-73, analogues, and sigma agonist activity” (Anavex Life Sciences Corp., priority 2015, dated 2025)
